# Results taken from publication PMC6135860 (Neuropsychopharmacology, 2018).
# Key:
# [1] = molecular target: T1, mouse PDE4B3 dimer S133D(PKA) (Mus musculus, UniProt Q8VBU5, S118D); assay: PDE4 kinetic cAMP hydrolysis coupled-enzyme assay; assay type: biochemical
# T1 construct: hexahistidine; Proteos Inc; host or cells: Baculovirus-infected Sf9 insect cells
# T1 sequence (Q8VBU5 1-721 S118D): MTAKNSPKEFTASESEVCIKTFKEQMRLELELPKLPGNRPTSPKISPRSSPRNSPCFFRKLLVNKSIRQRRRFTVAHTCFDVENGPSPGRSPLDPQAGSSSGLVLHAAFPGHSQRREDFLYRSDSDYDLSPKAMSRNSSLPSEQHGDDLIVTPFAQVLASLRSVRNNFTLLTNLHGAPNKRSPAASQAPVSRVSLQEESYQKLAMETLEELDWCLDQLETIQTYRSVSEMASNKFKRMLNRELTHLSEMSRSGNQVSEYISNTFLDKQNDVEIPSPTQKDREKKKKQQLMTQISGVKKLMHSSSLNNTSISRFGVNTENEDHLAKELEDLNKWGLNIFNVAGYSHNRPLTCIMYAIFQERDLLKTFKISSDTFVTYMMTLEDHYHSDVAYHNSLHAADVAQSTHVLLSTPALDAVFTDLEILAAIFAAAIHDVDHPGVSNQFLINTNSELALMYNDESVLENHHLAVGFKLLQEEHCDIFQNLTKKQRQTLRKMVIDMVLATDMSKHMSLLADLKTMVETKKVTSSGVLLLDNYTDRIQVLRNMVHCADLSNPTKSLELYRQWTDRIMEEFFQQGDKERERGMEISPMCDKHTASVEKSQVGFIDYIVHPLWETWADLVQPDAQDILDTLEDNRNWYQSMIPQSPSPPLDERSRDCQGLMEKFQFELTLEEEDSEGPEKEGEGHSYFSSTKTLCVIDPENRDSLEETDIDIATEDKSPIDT
# Method: Kinetic assay of cAMP hydrolysis by purified PDE4 enzymes is measured by coupling the formation of the PDE4 reaction product 5′-adenosine monophosphate (AMP) to the oxidation of reduced nicotinamide adenine dinucleotide (NADH). This is accomplished with three coupling enzymes (yeast myokinase, pyruvate kinase, and lactate dehydrogenase), and allows fluorescent determination of reaction rates [19]. To measure inhibition of PDE4 enzymes by test compounds, data were percent normalized relative to controls and are presented as percent inhibition.
# Kinetic assay of cAMP hydrolysis by purified PDE4 enzymes is measured by coupling the formation of the PDE4 reaction product 5′-adenosine monophosphate (AMP) to the oxidation of reduced nicotinamide adenine dinucleotide (NADH). This is accomplished with three coupling enzymes (yeast myokinase, pyruvate kinase, and lactate dehydrogenase), and allows fluorescent determination of reaction rates.^19 Assays were performed in 96-well plates in a total volume of 200 μl/well. Compounds were dissolved in dimethylsulfoxide (DMSO) and added to plates in a volume of 10 μl followed by addition of 165 μl of assay mix. Plates were pre-incubated at 25 °C for 10 min. The enzyme reaction was initiated by the addition of 25 μl of cAMP followed by thorough mixing. […] Initial rates (slopes) were determined from linear portions of the progress curves. […]
# [2] = system: brain cAMP, humanized PDE4D mice; assay: Brain cAMP ELISA after oral dosing; assay type: in vivo, mouse
# Method: (§1) On the day of assay, frozen brain samples were analyzed using the cAMP complete ELISA kit (Enzo Life Sciences, Farmingdale, NY) according to the assay protocol.
# (§2) Concentrations of cAMP in mouse brain samples were measured using an enzyme-linked immunosorbent assay (ELISA). The mice were treated with various doses of BPN-14770 or vehicle. 1 h after dosing, mice were killed by rapid decapitation, and brains were immediately were dissected on ice, flash frozen in liquid nitrogen, and stored at -80 ̊C. On the day of assay, brain samples (one hemisphere) were ground to a fine powder under liquid nitrogen in a stainless steel mortar, followed by addition of 10 volumes of 0.1 M HCl. Tissue homogenates were then centrifuged at 800ˣg for 15 min. Supernatants were collected for immediate assay or stored frozen for assay later using the cAMP complete ELISA kit (Enzo Life Sciences, Farmingdale, NY) according to the assay protocol ^66.
# [3] = system: brain cAMP, wild-type mice; assay: Brain cAMP ELISA after oral dosing; assay type: in vivo, mouse
# Method: as §1, §2
# humanized PDE4D mice = assay: Scopolamine-induced memory impairment in novel object recognition, 1 h inter-trial interval; assay type: in vivo, mouse
# Method: The novel object recognition test was performed as described elsewhere. […] The duration each animal spent exploring the objects was recorded. Time spent exploring the identical objects in T1 was recorded as a1 and a2; time spent exploring the familiar and the novel objects in T2 was recorded as “a” and “b”, respectively. The following variables were calculated: e1 = a1 + a2, e2 = a + b, the relative discrimination index d2 = (b–a)/e2.
# For the scopolamine-induced memory impairment models, a single dose of scopolamine (0.1 mg/kg, IP) was administered 30 min before the training session of the NOR. Animals treated with H-89 or vehicle were implanted with 26-gauge guide cannula unilaterally (AP −0.2 mm from Bregma, ML +1 mm from the midline, DV−2mm from skull surface) and rested for a week before any tests.
# Novel object recognition. Mice were handled for 3-5 min for 5 days in a row. The novel object recognition test was performed in a Plexiglas open field box (L30 cm, W50 cm, H40 cm) as described elsewhere^64,65. Briefly, the task procedure consists of three phases: habituation, training (T1), and testing (T2). In the habituation phase (day 1), each animal is allowed to freely explore the apparatus for 10 min; then the animal is returned to its home cage. During the training phase (day 2), a single animal is placed in the center of the open field containing two identical objects located on the diagonal of the field, and allowed to explore for 5 min. After a retention interval after T1 of 24 h (long-term recall) or 1 h (scopolamine-impairment model), the animal was subjected to the T2 testing phase for 5 min, during which one familiar object and one novel object were presented. […] The duration each animal spent exploring the objects was recorded. Time spent exploring the identical objects in T1 was recorded as a1 and a2; time spent exploring the familiar and the novel objects in T2 was recorded as ‘a’ and ‘b’, respectively. The following variables were calculated: e1 = a1 + a2, e2 = a + b, the relative discrimination index d2 = (b – a)/e2.
# ICR mice = assay: Antidepressant-like effect models (tail suspension, forced swim); assay type: in vivo, mouse; conditions: Supplementary Figure S3
# Excerpt: Data are presented as mean ± S.E.M. (n = 10 male mice); * p < 0.05 and ** p < 0.01 (Student’s t-test) versus vehicle-treated group.
smiles,measurement,setting,value
O=C(O)Cc1ccc(Cc2cc(-c3cccc(Cl)c3)nc(C(F)(F)F)c2)cc1 [BPN14770],IC50,[1],2120 ± 527 nM
same,increase in brain cAMP,"[2]; humanized PDE4D mice, 0.3 mg/kg PO",almost three-fold
same,minimum effective dose (MED) for increase in brain cAMP,"[2]; humanized mice, 1 h after oral dose",0.1 mg/kg PO
same,effect on brain cAMP,[3]; 0.3 mg/kg PO,ineffective
same,minimum effective dose (MED) for increase in brain cAMP,[3]; 1 h after oral dose,1 mg/kg PO
same,MED for reversal of scopolamine memory deficit,"humanized PDE4D mice; acute administration 30 min prior to scopolamine, NOR 1 h inter-trial interval",0.03 mg/kg
same,memory benefit in the scopolamine impairment model with repeated dosing,humanized PDE4D mice; repeated treatment for 14 days,maintained with repeated dosing
same,antidepressant-like effect,ICR mice,ineffective
